ChEMBL document CHEMBL4118172, “Design and synthesis of 2,6-disubstituted-8-amino imidazo[1,2a]pyridines, a promising privileged structure” (Bioorg Med Chem, 2018)

What was measured:
Adenosine receptor A2a = Adenosine receptor A2a (Homo sapiens, UniProt P29274); experiment: Displacement of [3H]-ZM-241385 from human adenosine A2A receptor expressed in HEK293 cell membranes after 1 hr by scintillation counting analysis
[1] = Cytotoxicity against human SH-SY5Y cells after 24 to 72 hrs by MTT assay; assay type: cell-based

Adenosine receptor A2a, sequence (P29274 whole entry): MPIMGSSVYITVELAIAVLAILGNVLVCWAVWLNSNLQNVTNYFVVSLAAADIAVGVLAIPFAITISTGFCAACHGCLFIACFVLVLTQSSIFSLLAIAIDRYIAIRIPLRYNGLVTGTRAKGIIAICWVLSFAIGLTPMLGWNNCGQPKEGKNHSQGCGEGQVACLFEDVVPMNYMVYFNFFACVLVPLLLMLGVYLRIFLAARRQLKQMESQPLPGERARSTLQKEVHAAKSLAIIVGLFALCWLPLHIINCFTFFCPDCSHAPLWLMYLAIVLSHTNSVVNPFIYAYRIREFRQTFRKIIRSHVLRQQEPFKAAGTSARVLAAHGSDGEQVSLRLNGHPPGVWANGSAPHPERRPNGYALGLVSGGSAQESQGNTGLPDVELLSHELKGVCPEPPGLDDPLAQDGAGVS

**Q.** Which Ki (Adenosine receptor A2a) does the source give for `Nc1cccn2cc(-c3ccco3)nc12` here?
**A.** > 10 µM

**Q.** What about the CC50 [1] of the same compound?
**A.** > 100 µM

**Q.** What does the source list for `COc1ccc(-c2cn3cc(C(=O)NCCCN4CCCCC4)cc(N)c3n2)cc1OC`?
**A.** Ki (Adenosine receptor A2a): > 10 µM; CC50 [1]: 49.6 µM

**Q.** For `COCCOc1ccc(N2CCN(CCNC(=O)c3cc(N)c4nc(-c5ccc(OC)c(OC)c5)cn4c3)CC2)cc1`, which Ki (Adenosine receptor A2a) is on record?
**A.** > 10 µM

**Q.** And the CC50 [1]?
**A.** 31.8 µM

**Q.** With `COc1ccc(-c2cn3cc(CCc4ccccc4)cc(N)c3n2)cc1OC` as the compound, how does the Ki (Adenosine receptor A2a) read?
**A.** > 10 µM

**Q.** What about the CC50 [1] of the same compound?
**A.** 50.4 µM

**Q.** With `COc1ccc(-c2cn3cc(C#Cc4ccccc4)cc(N)c3n2)cc1OC` as the compound, how does the Ki (Adenosine receptor A2a) read?
**A.** > 10 µM

**Q.** And the CC50 [1]?
**A.** 66.7 µM

**Q.** For `Nc1cc(-c2ccccc2)cn2cc(-c3ccco3)nc12`, which Ki (Adenosine receptor A2a) is on record?
**A.** > 10 µM

**Q.** What about the CC50 [1] of the same compound?
**A.** 0.5 µM

**Q.** For `c1ccc(-c2cn3cc(-c4ccco4)ccc3n2)cc1`, which Ki (Adenosine receptor A2a) is on record?
**A.** > 10 µM

**Q.** And the CC50 [1]?
**A.** > 100 µM

**Q.** Which Ki (Adenosine receptor A2a) does the source give for `COc1ccc(-c2cn3cc(C(=O)NCCCN4CCN(C)CC4)cc(N)c3n2)cc1OC` here?
**A.** > 10 µM

**Q.** What about the CC50 [1] of the same compound?
**A.** > 100 µM

**Q.** With `COc1ccc(-c2cn3cc(C(=O)NCCc4ccc(O)cc4)cc(N)c3n2)cc1OC` as the compound, how does the Ki (Adenosine receptor A2a) read?
**A.** > 10 µM

**Q.** What about the CC50 [1] of the same compound?
**A.** 26.9 µM

**Q.** With `COCCOc1ccc(N2CCN(C(=O)c3cc(N)c4nc(-c5ccc(OC)c(OC)c5)cn4c3)CC2)cc1` as the compound, how does the Ki (Adenosine receptor A2a) read?
**A.** > 10 µM

**Q.** What about the CC50 [1] of the same compound?
**A.** > 100 µM

**Q.** What does the source list for `c1coc(-c2cn3ccccc3n2)c1`?
**A.** Ki (Adenosine receptor A2a): > 10 µM; CC50 [1]: > 100 µM

**Q.** With `Nc1cc(-c2ccco2)cn2cc(-c3ccco3)nc12` as the compound, how does the Ki (Adenosine receptor A2a) read?
**A.** > 10 µM

**Q.** What about the CC50 [1] of the same compound?
**A.** 2.27 µM

**Q.** Which Ki (Adenosine receptor A2a) does the source give for `Nc1cc(-c2ccco2)cn2cc(-c3ccccc3)nc12` here?
**A.** 0.418 µM

**Q.** What about the CC50 [1] of the same compound?
**A.** 26 µM

**Q.** Which results are given for `c1ccc(-c2ccc3nc(-c4ccco4)cn3c2)cc1`?
**A.** Ki (Adenosine receptor A2a): > 10 µM; CC50 [1]: 0.42 µM

**Q.** For `COc1ccc(-c2cn3cc(C(=O)NCCCN4CCNCC4)cc(N)c3n2)cc1OC`, which Ki (Adenosine receptor A2a) is on record?
**A.** > 10 µM

**Q.** And the CC50 [1]?
**A.** > 100 µM

**Q.** With `COc1ccc(-c2cn3cc(C(=O)NCCCN4CCOCC4)cc(N)c3n2)cc1OC` as the compound, how does the Ki (Adenosine receptor A2a) read?
**A.** > 10 µM

**Q.** And the CC50 [1]?
**A.** > 100 µM

**Q.** Which results are given for `COc1ccc(-c2cn3cc(-c4ccco4)cc(N)c3n2)cc1OC`?
**A.** Ki (Adenosine receptor A2a): 0.117 µM; CC50 [1]: 36.4 µM

**Q.** Which Ki (Adenosine receptor A2a) does the source give for `COc1ccc(-c2cn3cc(-c4ccco4)ccc3n2)cc1OC` here?
**A.** 0.238 µM

**Q.** What about the CC50 [1] of the same compound?
**A.** 30 µM

**Q.** What does the source list for `c1coc(-c2ccc3nc(-c4ccco4)cn3c2)c1`?
**A.** Ki (Adenosine receptor A2a): 1.63 µM; CC50 [1]: 3 µM
